Measured values published in PubChem BioAssay (NCI).
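Growth conditions: 96-well plates. Treatment: test compound, 48 hours, 5 concentrations. Analysis: linear interpolation between bracketing concentrations; unreached endpoints set to highest concentration. At the TGI there is no net growth.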

Key:
Assay in all cases: inhibition of tumour cell growth, NCI panel, 48 h
786-0 renal = test system: 786-0 renal
A498 renal = test system: A498 renal
A549 NSCLC = test system: A549 NSCLC
ACHN renal = test system: ACHN renal
BT-549 breast = test system: BT-549 breast
CAKI-1 renal = test system: CAKI-1 renal
CCRF-CEM leukemia = test system: CCRF-CEM leukemia
COLO 205 colon = test system: COLO 205 colon
DU-145 prostate = test system: DU-145 prostate
EKVX NSCLC = test system: EKVX NSCLC
HCT-116 colon = test system: HCT-116 colon
HCT-15 colon = test system: HCT-15 colon
HOP-62 NSCLC = test system: HOP-62 NSCLC
HOP-92 NSCLC = test system: HOP-92 NSCLC
HS 578T breast = test system: HS 578T breast
HT29 colon = test system: HT29 colon
IGROV1 ovarian = test system: IGROV1 ovarian
K-562 leukemia = test system: K-562 leukemia
KM12 colon = test system: KM12 colon
LOX IMVI melanoma = test system: LOX IMVI melanoma
M14 melanoma = test system: M14 melanoma
MALME-3M melanoma = test system: MALME-3M melanoma
MCF7 breast = test system: MCF7 breast
MDA-MB-231 breast = test system: MDA-MB-231 breast
MDA-MB-435 = test system: MDA-MB-435
MDA-N = test system: MDA-N
MOLT-4 leukemia = test system: MOLT-4 leukemia
NCI-H226 lung = test system: NCI-H226 lung
NCI-H23 lung = test system: NCI-H23 lung
NCI-H460 lung = test system: NCI-H460 lung
NCI-H522 lung = test system: NCI-H522 lung
NCI/ADR-RES ovarian = test system: NCI/ADR-RES ovarian
OVCAR-3 ovarian = test system: OVCAR-3 ovarian
OVCAR-4 ovarian = test system: OVCAR-4 ovarian
OVCAR-5 ovarian = test system: OVCAR-5 ovarian
OVCAR-8 ovarian = test system: OVCAR-8 ovarian
PC-3 prostate = test system: PC-3 prostate
RPMI-8226 leukemia = test system: RPMI-8226 leukemia
RXF 393 renal = test system: RXF 393 renal
SF-268 CNS = test system: SF-268 CNS
SF-295 CNS = test system: SF-295 CNS
SF-539 CNS = test system: SF-539 CNS
SK-MEL-2 melanoma = test system: SK-MEL-2 melanoma
SK-MEL-28 melanoma = test system: SK-MEL-28 melanoma
SK-MEL-5 melanoma = test system: SK-MEL-5 melanoma
SK-OV-3 ovarian = test system: SK-OV-3 ovarian
SN12C renal = test system: SN12C renal
SNB-19 CNS = test system: SNB-19 CNS
SNB-75 CNS = test system: SNB-75 CNS
SR leukemia = test system: SR leukemia
SW-620 colon = test system: SW-620 colon
T-47D breast = test system: T-47D breast
TK-10 renal = test system: TK-10 renal
U251 CNS = test system: U251 CNS
UACC-257 melanoma = test system: UACC-257 melanoma
UACC-62 melanoma = test system: UACC-62 melanoma
HL-60(TB) leukemia = test system: HL-60(TB) leukemia
UO-31 renal = test system: UO-31 renal
HCC-2998 colon = test system: HCC-2998 colon

## CCCCSCc1nc2nc(Cl)c(Cl)nc2[nH]1
786-0 renal
  TGI: 69.3 µM
A498 renal
  TGI: 60.6 µM
A549 NSCLC
  TGI: > 100 µM
ACHN renal
  TGI: 71.5 µM
BT-549 breast
  TGI: 79.4 µM
CAKI-1 renal
  TGI: 79.3 µM
CCRF-CEM leukemia
  TGI: 63.6 µM
COLO 205 colon
  TGI: 37 µM
DU-145 prostate
  TGI: > 100 µM
EKVX NSCLC
  TGI: > 100 µM
HCT-116 colon
  TGI: 40.6 µM
HCT-15 colon
  TGI: 85.5 µM
HOP-62 NSCLC
  TGI: 42 µM
HOP-92 NSCLC
  TGI: > 100 µM
HS 578T breast
  TGI: > 100 µM
HT29 colon
  TGI: > 100 µM
IGROV1 ovarian
  TGI: > 100 µM
K-562 leukemia
  TGI: 99.5 µM
KM12 colon
  TGI: > 100 µM
LOX IMVI melanoma
  TGI: 44.5 µM
M14 melanoma
  TGI: 66.6 µM
MALME-3M melanoma
  TGI: 53.6 µM
MCF7 breast
  TGI: 68 µM
MDA-MB-231 breast
  TGI: 79.2 µM
MDA-MB-435
  TGI: > 100 µM
MDA-N
  TGI: 65.9 µM
MOLT-4 leukemia
  TGI: 45.5 µM
NCI-H226 lung
  TGI: 62.7 µM
NCI-H23 lung
  TGI: 44.6 µM
NCI-H460 lung
  TGI: 53.8 µM
NCI-H522 lung
  TGI: 42.6 µM
NCI/ADR-RES ovarian
  TGI: 90.8 µM
OVCAR-3 ovarian
  TGI: 36.7 µM
OVCAR-4 ovarian
  TGI: > 100 µM
OVCAR-5 ovarian
  TGI: > 100 µM
OVCAR-8 ovarian
  TGI: > 100 µM
PC-3 prostate
  TGI: > 100 µM
RPMI-8226 leukemia
  TGI: 38.2 µM
RXF 393 renal
  TGI: 68.8 µM
SF-268 CNS
  TGI: > 100 µM
SF-295 CNS
  TGI: 45.6 µM
SF-539 CNS
  TGI: > 100 µM
SK-MEL-2 melanoma
  TGI: 43.3 µM
SK-MEL-28 melanoma
  TGI: 71.9 µM
SK-MEL-5 melanoma
  TGI: 28.8 µM
SK-OV-3 ovarian
  TGI: 57.2 µM
SN12C renal
  TGI: 53.2 µM
SNB-19 CNS
  TGI: > 100 µM
SNB-75 CNS
  TGI: 57.5 µM
SR leukemia
  TGI: 52.3 µM
SW-620 colon
  TGI: > 100 µM
T-47D breast
  TGI: 62.9 µM
TK-10 renal
  TGI: 73.9 µM
U251 CNS
  TGI: 55.6 µM
UACC-257 melanoma
  TGI: 44.5 µM
UACC-62 melanoma
  TGI: 29.5 µM

## CC1CCCN(CC(O)CN2CCCc3ccccc32)C1 (stereo not drawn)
786-0 renal
  TGI: > 100 µM
A498 renal
  TGI: > 100 µM
A549 NSCLC
  TGI: > 100 µM
ACHN renal
  TGI: > 100 µM
BT-549 breast
  TGI: > 100 µM
CAKI-1 renal
  TGI: > 100 µM
CCRF-CEM leukemia
  TGI: > 100 µM
COLO 205 colon
  TGI: > 100 µM
DU-145 prostate
  TGI: > 100 µM
EKVX NSCLC
  TGI: > 100 µM
HCT-116 colon
  TGI: > 100 µM
HCT-15 colon
  TGI: > 100 µM
HL-60(TB) leukemia
  TGI: 46.6 µM
HOP-62 NSCLC
  TGI: > 100 µM
HS 578T breast
  TGI: > 100 µM
HT29 colon
  TGI: > 100 µM
IGROV1 ovarian
  TGI: > 100 µM
K-562 leukemia
  TGI: > 100 µM
KM12 colon
  TGI: > 100 µM
LOX IMVI melanoma
  TGI: > 100 µM
M14 melanoma
  TGI: > 100 µM
MALME-3M melanoma
  TGI: > 100 µM
MCF7 breast
  TGI: > 100 µM
MDA-MB-231 breast
  TGI: > 100 µM
MDA-MB-435
  TGI: > 100 µM
MDA-N
  TGI: > 100 µM
MOLT-4 leukemia
  TGI: > 100 µM
NCI-H226 lung
  TGI: > 100 µM
NCI-H23 lung
  TGI: > 100 µM
NCI-H522 lung
  TGI: > 100 µM
NCI/ADR-RES ovarian
  TGI: > 100 µM
OVCAR-3 ovarian
  TGI: > 100 µM
OVCAR-4 ovarian
  TGI: > 100 µM
OVCAR-5 ovarian
  TGI: > 100 µM
OVCAR-8 ovarian
  TGI: > 100 µM
PC-3 prostate
  TGI: > 100 µM
RPMI-8226 leukemia
  TGI: > 100 µM
RXF 393 renal
  TGI: > 100 µM
SF-268 CNS
  TGI: > 100 µM
SF-295 CNS
  TGI: > 100 µM
SK-MEL-2 melanoma
  TGI: > 100 µM
SK-MEL-28 melanoma
  TGI: > 100 µM
SK-MEL-5 melanoma
  TGI: > 100 µM
SK-OV-3 ovarian
  TGI: > 100 µM
SN12C renal
  TGI: > 100 µM
SNB-19 CNS
  TGI: > 100 µM
SNB-75 CNS
  TGI: > 100 µM
SR leukemia
  TGI: > 100 µM
SW-620 colon
  TGI: > 100 µM
T-47D breast
  TGI: > 100 µM
TK-10 renal
  TGI: > 100 µM
U251 CNS
  TGI: > 100 µM
UACC-257 melanoma
  TGI: > 100 µM
UACC-62 melanoma
  TGI: > 100 µM
UO-31 renal
  TGI: > 100 µM

## C/C(=N\NC(=O)/C(C#N)=C\c1ccc(N(CCC#N)CCC#N)cc1)c1ccccc1
786-0 renal
  TGI: > 10 µM
A549 NSCLC
  TGI: > 10 µM
ACHN renal
  TGI: > 10 µM
BT-549 breast
  TGI: > 10 µM
CAKI-1 renal
  TGI: > 10 µM
COLO 205 colon
  TGI: > 10 µM
DU-145 prostate
  TGI: > 10 µM
EKVX NSCLC
  TGI: > 10 µM
HCC-2998 colon
  TGI: > 10 µM
HCT-116 colon
  TGI: > 10 µM
HCT-15 colon
  TGI: > 10 µM
HL-60(TB) leukemia
  TGI: > 10 µM
HOP-62 NSCLC
  TGI: > 10 µM
HOP-92 NSCLC
  TGI: > 10 µM
HS 578T breast
  TGI: > 10 µM
HT29 colon
  TGI: > 10 µM
IGROV1 ovarian
  TGI: > 10 µM
KM12 colon
  TGI: > 10 µM
LOX IMVI melanoma
  TGI: > 10 µM
M14 melanoma
  TGI: > 10 µM
MALME-3M melanoma
  TGI: > 10 µM
MCF7 breast
  TGI: > 10 µM
MDA-MB-231 breast
  TGI: > 10 µM
MDA-MB-435
  TGI: > 10 µM
MDA-N
  TGI: > 10 µM
MOLT-4 leukemia
  TGI: > 10 µM
NCI-H226 lung
  TGI: > 10 µM
NCI-H23 lung
  TGI: > 10 µM
NCI-H460 lung
  TGI: > 10 µM
NCI-H522 lung
  TGI: > 10 µM
NCI/ADR-RES ovarian
  TGI: > 10 µM
OVCAR-4 ovarian
  TGI: > 10 µM
OVCAR-8 ovarian
  TGI: > 10 µM
PC-3 prostate
  TGI: > 10 µM
RPMI-8226 leukemia
  TGI: > 10 µM
RXF 393 renal
  TGI: > 10 µM
SF-268 CNS
  TGI: > 10 µM
SF-295 CNS
  TGI: > 10 µM
SF-539 CNS
  TGI: > 10 µM
SK-MEL-28 melanoma
  TGI: > 10 µM
SK-MEL-5 melanoma
  TGI: > 10 µM
SK-OV-3 ovarian
  TGI: > 10 µM
SN12C renal
  TGI: > 10 µM
SNB-19 CNS
  TGI: > 10 µM
SNB-75 CNS
  TGI: > 10 µM
SR leukemia
  TGI: > 10 µM
SW-620 colon
  TGI: > 10 µM
T-47D breast
  TGI: > 10 µM
TK-10 renal
  TGI: > 10 µM
UACC-257 melanoma
  TGI: > 10 µM
UACC-62 melanoma
  TGI: > 10 µM
UO-31 renal
  TGI: > 10 µM
